Data reported in patent US11141410B2 (MERCK SHARP & DOHME CORP., priority 2015, dated 2021).

Assays:
MRSA COL (MB5393) [1] = test: TarO Inhibitor/β-Lactam Synergy Assay (growth, OD600); type: cell-based; conditions: Staphylococcus aureus, TarO inhibitor alone, >200 μM = 95% growth inhibition not achieved, 20 hours at 37° C., read-out: MITC95 TarO inhibitor alone, Bacteria: SA_MB5393
MRSA COL (MB5393) [2] = test: as above; type: cell-based, Staphylococcus aureus; conditions: for MITC95 TarO inhibitor + 4 μg/mL IPM; Bacteria: SA_MB5393: in combination with 4 μg/mL imipenem (IPM); for MITC95 TarO inhibitor + 8 μg/mL DCX; Bacteria: SA_MB5393: in combination with 8 μg/mL dicloxacillin (DCX)
Experimental: The TarO inhibitor/β-lactam synergy assay was performed to measure the re-sensitization of methicillin-resistant Staphylococci bacteria (MB5393: MRSA COL) to β-lactam antibiotics by TarO inhibitors. MRSA COL is a hospital-acquired penicillinase-negative clinically isolated strain commonly used in Staphylococcus aureus studies and is fully resistant to the antimicrobial bioactivity of β-lactam antibiotics, including but not limited to imipenem and dicloxacillin. […] MRSA COL is fully refractory to β-lactam antibiotic effect at the current clinical breakpoint concentrations and as such MRSA COL is fully viable at these concentrations.
The β-lactam antibiotic concentration was fixed at the clinical breakpoint (imipenem 4 μg/ml or dicloxacillin 8 μg/ml) and the TarO inhibitors were titrated by 2 fold starting from the highest concentration of 200 μM with final DMSO concentration of 2% in the assay. 5×10^5 colony forming unit of MRSA COL in cation-adjusted Mueller Hinton broth (CAMHB) was then mixed and the assay plate was incubated for 20 hours at 37° C. without shaking. After 20 hours, the optical density at 600 nm (OD600) was read for all wells to determine relative growth of MRSA COL.

Structure (SMILES) | IC95 (MRSA COL (MB5393) [1]) [µM] | MITC95 TarO inhibitor + 4 μg/mL IPM; Bacteria: SA_MB5393 (MRSA COL (MB5393) [2]) [µM] | MITC95 TarO inhibitor + 8 μg/mL DCX; Bacteria: SA_MB5393 (MRSA COL (MB5393) [2]) [µM]
C[C@H]1[C@@H](c2cc(F)cc(C(F)(F)F)c2)OC(=O)N1C(=O)NCc1ccccc1Cl [Example 21, (4S,5R)-N-(2-chlorobenzyl)-5-[3-fluoro-5-(trifluoromethyl)phenyl]-4-methyl-2-oxo-1,3-oxazolidine-3-carboxamide] | > 200 | 0.16 | 1.73
C[C@H]1[C@@H](c2cc(F)cc(C(F)(F)F)c2)OC(=O)N1C(=O)NCc1cccc2nccnc12 [Example 22, (4S,5R)-5-[3-fluoro-5-(trifluoromethyl)phenyl]-4-methyl-2-oxo-N-(quinoxalin-5-ylmethyl)-1,3-oxazolidine-3-carboxamide] | > 200 | 0.49 | 6.25
C[C@H]1[C@@H](c2cc(F)cc(C(F)(F)F)c2)OC(=O)N1C(=O)NCc1ccnc2ccccc12 [Example 23, (4S,5R)-5-[3-fluoro-5-(trifluoromethyl)phenyl]-4-methyl-2-oxo-N-(quinolin-4-ylmethyl)-1,3-oxazolidine-3-carboxamide] | > 200 | 0.61 | 4.84
COc1ccccc1CNC(=O)N1C(=O)O[C@H](c2cccc(C(F)(F)F)c2)[C@@H]1C [Example 24, (4S,5R)-N-(2-methoxybenzyl)-4-methyl-2-oxo-5-[3-(trifluoromethyl)phenyl]-1,3-oxazolidine-3-carboxamide] | > 200 | 0.20 | 7.29
C[C@H]1[C@@H](c2cc(F)cc(Br)c2)OC(=O)N1C(=O)NCc1cncc2ccccc12 [Example 25, (4S,5R)-5-(3-bromo-5-fluorophenyl)-N-(isoquinolin-4-ylmethyl)-4-methyl-2-oxo-1,3-oxazolidine-3-carboxamide] | > 200 | 0.22 | 1.38
C[C@H]1[C@@H](c2cc(F)cc(C3CC3)c2)OC(=O)N1C(=O)NCc1cncc2ccccc12 [Example 26, (4S,5R)-5-(3-cyclopropyl-5-fluorophenyl)-N-(isoquinolin-4-ylmethyl)-4-methyl-2-oxo-1,3-oxazolidine-3-carboxamide] | > 200 | 0.25 | 0.99
C[C@H]1[C@@H](c2cccc(C(C)(F)F)c2)OC(=O)N1C(=O)NCc1cncc2ccccc12 [Example 27, (4S,5R)-5-[3-(1,1-difluoroethyl)phenyl]-N-(isoquinolin-4-ylmethyl)-4-methyl-2-oxo-1,3-oxazolidine-3-carboxamide] | > 200 | 0.39 | 3.65
C[C@H]1[C@@H](c2cc(C(F)(F)F)cc(C(F)(F)F)c2)OC(=O)N1C(=O)NCc1ncccc1Br [Example 28, (4S,5R)-5-[3,5-bis(trifluoromethyl)phenyl]-N-[(3-bromopyridin-2-yl)methyl]-4-methyl-2-oxo-1,3-oxazolidine-3-carboxamide] | > 200 | 0.70 | 4.69
Cc1nn(C)c(C)c1CNC(=O)N1C(=O)O[C@H](c2cc(F)cc(C(F)(F)F)c2)[C@@H]1C [Example 29, (4S,5R)-5-[3-fluoro-5-(trifluoromethyl)phenyl]-4-methyl-2-oxo-N-[(1,3,5-trimethyl-1H-pyrazol-4-yl)methyl]-1,3-oxazolidine-3-carboxamide] | > 200 | 0.78 | 5.21
C[C@H]1[C@@H](c2cc(F)cc(C(F)(F)F)c2)OC(=O)N1C(=O)NCc1cccc2cncnc12 [Example 30, (4S,5R)-5-[3-fluoro-5-(trifluoromethyl)phenyl]-4-methyl-2-oxo-N-(quinazolin-8-ylmethyl)-1,3-oxazolidine-3-carboxamide] | > 200 | 0.68 | 4.69
Cc1cccnc1CNC(=O)N1C(=O)O[C@H](c2cc(C(F)(F)F)cc(C(F)(F)F)c2)[C@@H]1C [Example 31, (4S,5R)-5-[3,5-bis(trifluoromethyl)phenyl]-4-methyl-N-[(3-methylpyridin-2-yl)methyl]-2-oxo-1,3-oxazolidine-3-carboxamide] | > 200 | 0.43 | 8.33
C[C@H]1[C@@H](c2cc(F)cc(C(F)(F)F)c2)OC(=O)N1C(=O)NCc1ccccc1-n1cccc1 [Example 32, (4S,5R)-5-[3-fluoro-5-(trifluoromethyl)phenyl]-4-methyl-2-oxo-N-[2-(1H-pyrrol-1-yl)benzyl]-1,3-oxazolidine-3-carboxamide] | > 200 | 0.59 | 4.69
C[C@H]1[C@@H](c2cccc(C(F)F)c2)OC(=O)N1C(=O)NCc1cncc2ccccc12 [Example 33, (4S,5R)-5-[3-(difluoromethyl)phenyl]-N-(isoquinolin-4-ylmethyl)-4-methyl-2-oxo-1,3-oxazolidine-3-carboxamide] | > 200 | 1.37 | 9.38
C[C@H]1[C@@H](c2cc(F)cc(C(F)(F)F)c2)OC(=O)N1C(=O)NCc1ccnc2cccnc12 [Example 34, (4S,5R)-5-[3-fluoro-5-(trifluoromethyl)phenyl]-4-methyl-N-(1,5-naphthyridin-4-ylmethyl)-2-oxo-1,3-oxazolidine-3-carboxamide] | > 200 | 1.95 | 14.06
Cc1cnc(F)c(CNC(=O)N2C(=O)O[C@H](c3cc(C(F)(F)F)cc(C(F)(F)F)c3)[C@@H]2C)c1 [Example 35, (4S,5R)-5-[3,5-bis(trifluoromethyl)phenyl]-N-[(2-fluoro-5-methylpyridin-3-yl)methyl]-4-methyl-2-oxo-1,3-oxazolidine-3-carboxamide] | > 200 | 0.10 | 0.98
C[C@H]1[C@@H](c2cc(F)cc(C(F)(F)F)c2)OC(=O)N1C(=O)NCc1ccccc1CN(C)C [Example 36, (4S,5R)-N-{2-[(dimethylamino)methyl]benzyl}-5-[3-fluoro-5-(trifluoromethyl)phenyl]-4-methyl-2-oxo-1,3-oxazolidine-3-carboxamide] | > 200 | 6.25 | 25
C[C@H]1[C@@H](c2cc(F)cc(C(F)(F)F)c2)OC(=O)N1C(=O)NCc1cccc2ncccc12 [Example 37, (4S,5R)-5-[3-fluoro-5-(trifluoromethyl)phenyl]-4-methyl-2-oxo-N-(quinolin-5-ylmethyl)-1,3-oxazolidine-3-carboxamide] | > 200 | 0.98 | 2.73
COc1cccnc1CNC(=O)N1C(=O)O[C@H](c2cc(C(F)(F)F)cc(C(F)(F)F)c2)[C@@H]1C [Example 38, (4S,5R)-5-[3,5-bis(trifluoromethyl)phenyl]-N-[(3-methoxypyridin-2-yl)methyl]-4-methyl-2-oxo-1,3-oxazolidine-3-carboxamide] | > 200 | 1.56 | 25
C[C@H]1[C@@H](c2cc(F)cc(C(F)(F)F)c2)OC(=O)N1C(=O)NCc1cccc2cn[nH]c12 [Example 39, (4S,5R)-5-[3-fluoro-5-(trifluoromethyl)phenyl]-N-(1H-indazol-7-ylmethyl)-4-methyl-2-oxo-1,3-oxazolidine-3-carboxamide] | > 200 | 0.78 | 25
C[C@H]1[C@@H](c2cc(F)cc(C(F)(F)F)c2)OC(=O)N1C(=O)NCc1cccc2c1C(=O)NC2 [Example 40] | > 200 | 18.75 | 50
Cc1cccnc1CCNC(=O)N1C(=O)O[C@H](c2cc(C(F)(F)F)cc(C(F)(F)F)c2)[C@@H]1C [Example 41, (4S,5R)-5-[3,5-bis(trifluoromethyl)phenyl]-4-methyl-N-[2-(3-methylpyridin-2-yl)ethyl]-2-oxo-1,3-oxazolidine-3-carboxamide] | > 200 | 1.56 | 16.67
C[C@H]1[C@@H](c2cc(C(F)(F)F)cc(C(F)(F)F)c2)OC(=O)N1C(=O)NCc1cnc2c(c1)CCC2 [Example 42, (4S,5R)-5-[3,5-bis(trifluoromethyl)phenyl]-N-(6,7-dihydro-5H-cyclopenta[b]pyridin-3-ylmethyl)-4-methyl-2-oxo-1,3-oxazolidine-3-carboxamide] | > 200 | 0.78 | 12.50
